# In US20200172483A1, “HETEROCYCLIC SMALL MOLECULE MODULATORS OF HUMAN STING” (Curadev Pharma Limited, priority 2017, published 2020):
# Target: T1, WT/R232 STING protein (Homo sapiens, UniProt Q86WV6, H232R)
# T1 construct: host or cells: HEK293T
# Experiment: Luciferase reporter assay in HEK293T-hSTING-Luciferase cells (R232)
# Format: cell-based
# Conditions: 20 hr stimulation, EC50 range
# Method in brief: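 Readout is fold-induction over baseline of secreted luciferase, measured by luminescence after 20 hr compound stimulation. Cells: clonally selected HEK293T stably carrying hSTING (R232) and a luciferase reporter under five tandem ISREs fused to an ISG54 minimal promoter.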
# T1 sequence (Q86WV6 whole entry H232R): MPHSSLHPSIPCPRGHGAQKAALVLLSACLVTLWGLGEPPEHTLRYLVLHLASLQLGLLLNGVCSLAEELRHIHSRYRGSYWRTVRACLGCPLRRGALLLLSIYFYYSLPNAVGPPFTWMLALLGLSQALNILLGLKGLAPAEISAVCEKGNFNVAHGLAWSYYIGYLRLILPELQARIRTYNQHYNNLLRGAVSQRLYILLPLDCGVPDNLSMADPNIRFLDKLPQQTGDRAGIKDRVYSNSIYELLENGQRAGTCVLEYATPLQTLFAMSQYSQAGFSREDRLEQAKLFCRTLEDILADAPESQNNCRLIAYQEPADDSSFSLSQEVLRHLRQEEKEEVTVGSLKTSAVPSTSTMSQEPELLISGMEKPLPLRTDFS
row,SMILES,EC50 [µM]
1,"O=C(NCc1c(F)cc(F)cc1F)c1ccc2c(c1)N(Cc1c(F)cccc1Cl)C(=O)C2(Cl)c1ccccc1 (stereo not drawn) [Example 156, 3-chloro-1-(2-chloro-6-fluorobenzyl)-2-oxo-3-phenyl-N-(2,4,6-trifluorobenzyl)indoline-6-carboxamide]",> 10
2,"CC1(C)C(=O)N(Cc2c(F)cccc2Cl)c2cc(C(=O)NCc3cccs3)ccc21 [Example 7, 1-(2-chloro-6-fluorobenzyl)-3,3-dimethyl-2-oxo-N-(thiophen-2-ylmethyl)indoline-6-carboxamide]",1 to 10
3,"O=C(NCc1ccco1)c1ccc2c(c1)N(Cc1c(F)cccc1Cl)S(=O)(=O)C2 [Example 140, 1-(2-chloro-6-fluorobenzyl)-N-(furan-2-ylmethyl)-1,3-dihydrobenzo[c]isothiazole-6-carboxamide 2,2-dioxide]",> 10
4,"CC1(C)C(=O)N(Cc2cccc(C(N)=O)c2)c2cc(C(=O)NCc3ccc(F)cc3F)ccc21 [Example 38, 1-(3-carbamoylbenzyl)-N-(2,4-difluorobenzyl)-3,3-dimethyl-2-oxoindoline-6-carboxamide]",1 to 10
5,"Cc1cccc(F)c1CN1C(=O)C(C)(C)c2ncc(C(=O)NCc3ccc(F)cc3)cc21 [Example 197, 1-(2-fluoro-6-methylbenzyl)-N-(4-fluorobenzyl)-3,3-dimethyl-2-oxo-2,3-dihydro-1H-pyrrolo[3,2-b]pyridine-6-carboxamide]",> 10
6,"Cc1cc(CN2C(=O)C(C)(C)c3ccc(C(=O)NCc4c(F)cc(F)cc4F)nc32)ccn1 [Example 185, 3,3-dimethyl-1-((2-methylpyridin-4-yl)methyl)-2-oxo-N-(2,4,6-trifluorobenzyl)-2,3-dihydro-1H-pyrrolo[2,3-b]pyridine-6-carboxamide]",1 to 10
7,"CC1(C)C(=O)N(Cc2cc(F)cc(F)c2)c2cc(C(=O)NCc3cccc(C(F)(F)F)c3)ccc21 [Example 45, 1-(3,5-difluorobenzyl)-3,3-dimethyl-2-oxo-N-(3-(trifluoromethyl)benzyl)indoline-6-carboxamide]",> 10
8,"Cc1ccc(CNC(=O)c2ccc3c(c2)N(CCc2ccccc2)C(=O)C3(C)C)o1 [Example 59, 3,3-dimethyl-N-((5-methylfuran-2-yl)methyl)-2-oxo-1-phenethylindoline-6-carboxamide]",1 to 10
9,"Cc1cccc(-c2nc(CN3C(=O)C(C)(C)c4ccc(C(=O)NCc5c(F)cc(F)cc5F)cc43)c(C)o2)c1 [Example 78, 3,3-dimethyl-1-((5-methyl-2-(m-tolyl)oxazol-4-yl)methyl)-2-oxo-N-(2,4,6-trifluorobenzyl)indoline-6-carboxamide]",> 10
10,"CC1(C)C(=O)N(Cc2cc(F)cc(F)c2)c2cc(C(=O)NCc3nc4ccccc4s3)ccc21 [Example 40, N-(benzo[d]thiazol-2-ylmethyl)-1-(3,5-difluorobenzyl)-3,3-dimethyl-2-oxoindoline-6-carboxamide]",1 to 10
11,"CC1(C)C(=O)N(Cc2cc(F)cc(F)c2)c2cc(C(=O)NCc3c(F)cc(F)cc3F)cnc21 [Example 179, 1-(3,5-Difluorobenzyl)-3,3-dimethyl-2-oxo-N-(2,4,6-trifluorobenzyl)-2,3-dihydro-1H-pyrrolo[3,2-b]pyridine-6-carboxamide]",1 to 10
12,"Cc1ccc(CNC(=O)c2ccc3c(c2)N(Cc2ccc(F)c(F)c2)C(=O)C3(C)C)o1 [Example 122, 1-(3,4-difluorobenzyl)-3,3-dimethyl-N-((5-methylfuran-2-yl)methyl)-2-oxoindoline-6-carboxamide]",1 to 10
13,"Cc1ncc(CNC(=O)c2ccc3c(c2)N(Cc2c(F)cccc2Cl)C(=O)C3(C)C)o1 [Example 31, 1-(2-chloro-6-fluorobenzyl)-3,3-dimethyl-N-((2-methyloxazol-5-yl)methyl)-2-oxoindoline-6-carboxamide]",> 10
14,"CC1(N)C(=O)N(Cc2ccccc2F)c2cc(C(=O)NCc3c(F)cc(F)cc3F)ccc21 (stereo not drawn) [Example 154, 3-amino-1-(2-fluorobenzyl)-3-methyl-2-oxo-N-(2,4,6-trifluorobenzyl)indoline-6-carboxamide]",> 10
15,"Cc1ncc(CN2C(=O)C(C)(C)c3ccc(C(=O)NCc4c(F)cc(F)cc4F)cc32)s1 [Example 58, 3,3-dimethyl-1-((2-methylthiazol-5-yl)methyl)-2-oxo-N-(2,4,6-trifluorobenzyl)indoline-6-carboxamide]",1 to 10
16,"CC1(CCCO)C(=O)N(Cc2c(F)cccc2Cl)c2cc(C(=O)NCc3c(F)cc(F)cc3F)ccc21 (stereo not drawn) [Example 177, 1-(2-chloro-6-fluorobenzyl)-3-(3-hydroxypropyl)-3-methyl-2-oxo-N-(2,4,6-trifluorobenzyl)indoline-6-carboxamide]",> 10
17,"CC1(C)C(=O)N(Cc2cc3ccccc3o2)c2cc(C(=O)NCc3c(F)cc(F)cc3F)ccc21 [Example 131, 1-(benzofuran-2-ylmethyl)-3,3-dimethyl-2-oxo-N-(2,4,6-trifluorobenzyl)indoline-6-carboxamide]",> 10
18,"Cc1cc(CN2C(=O)C(C)(C)c3ccc(C(=O)NCc4c(F)cc(F)cc4F)cc32)on1 [Example 52, 3,3-dimethyl-1-((3-methylisoxazol-5-yl)methyl)-2-oxo-N-(2,4,6-trifluorobenzyl)indoline-6-carboxamide]",> 10

# Continued, values first:
row,EC50 [µM],SMILES
1,> 10,"CC1(C)CN(C(=O)c2c(F)cccc2Cl)c2cc(C(=O)NCc3ccco3)ccc21 [Example 132, 1-(2-chloro-6-fluorobenzoyl)-N-(furan-2-ylmethyl)-3,3-dimethylindoline-6-carboxamide]"
2,1 to 10,"CC1(C)C(=O)N(Cc2ccncc2)c2nc(C(=O)NCc3c(F)cc(F)cc3F)ccc21 [Example 184, 3,3-dimethyl-2-oxo-1-(pyridin-4-ylmethyl)-N-(2,4,6-trifluorobenzyl)-2,3-dihydro-1H-pyrrolo[2,3-b]pyridine-6-carboxamide]"
3,> 10,"CC1(C)C(=O)N(Cc2cc(F)cc(F)c2)c2cc(C(=O)NCC3CCC(F)(F)C3)ccc21 (stereo not drawn) [Example 39, 1-(3,5-difluorobenzyl)-N-((3,3-difluorocyclopentyl)methyl)-3,3-dimethyl-2-oxoindoline-6-carboxamide]"
4,1 to 10,COC1(C)C(=O)N(Cc2c(F)cccc2Cl)c2cc(C(=O)NCc3c(F)cc(F)cc3F)ccc21 (stereo not drawn) [Example 151]
5,> 10,"CC1(C)C(=O)N(Cc2cc(F)cc(F)c2)c2cc(C(=O)NCC3CCC(F)(F)CC3)ccc21 [Example 43, 1-(3,5-difluorobenzyl)-N-((4,4-difluorocyclohexyl)methyl)-3,3-dimethyl-2-oxoindoline-6-carboxamide]"
6,> 10,"Cc1ccc(CN2C(=O)C(C)(C)c3ccc(C(=O)NCc4cc(F)cc(F)c4)cc32)o1 [Example 125, N-(3,5-difluorobenzyl)-3,3-dimethyl-1-((5-methylfuran-2-yl)methyl)-2-oxoindoline-6-carboxamide]"
7,> 10,"CC1(C)C(=O)N(Cc2cc(F)cc(F)c2)c2cc(C(=O)NCc3cc4ccccc4o3)cnc21 [Example 193, N-(benzofuran-2-ylmethyl)-1-(3,5-difluorobenzyl)-3,3-dimethyl-2-oxo-2,3-dihydro-1H-pyrrolo[3,2-b]pyridine-6-carboxamide]"
8,1 to 10,"Cn1ncc2cccc(CN3C(=O)C(C)(C)c4ccc(C(=O)NCc5c(F)cc(F)cc5F)cc43)c21 [Example 96, 3,3-dimethyl-1-((1-methyl-1H-indazol-7-yl)methyl)-2-oxo-N-(2,4,6-trifluorobenzyl)indoline-6-carboxamide]"
9,> 10,"O=C(NCc1ccco1)c1ccc2c(c1)N(C(=O)c1c(F)cccc1Cl)CC2 [Example 135, 1-(2-chloro-6-fluorobenzoyl)-N-(furan-2-ylmethyl)indoline-6-carboxamide]"
10,> 10,"CC1(C)C(=O)N(Cc2ccccc2F)c2cc(C(=O)N(CC(=O)O)Cc3ccco3)ccc21 [Example 3, 2-(1-(2-fluorobenzyl)-N-(furan-2-ylmethyl)-3,3-dimethyl-2-oxoindoline-6-carboxamido)acetic acid]"
11,1 to 10,"CC1(C)C(=O)N(Cc2ccccc2)c2cc(C(=O)NCc3ccccc3)ccc21 [Example 10, N,1-dibenzyl-3,3-dimethyl-2-oxoindoline-6-carboxamide]"
12,1 to 10,"CC1(F)C(=O)N(Cc2cc(F)cc(F)c2)c2cc(C(=O)NCc3c(F)cc(F)cc3F)ccc21 (stereo not drawn) [Example 150, 1-(3,5-difluorobenzyl)-3-fluoro-3-methyl-2-oxo-N-(2,4,6-trifluorobenzyl)indoline-6-carboxamide]"
13,> 10,"CC1(CO)C(=O)N(Cc2cc(F)cc(F)c2)c2cc(C(=O)NCc3ccc(F)cc3F)ccc21 (stereo not drawn) [Example 176, N-(2,4-difluorobenzyl)-1-(3,5-difluorobenzyl)-3-(hydroxymethyl)-3-methyl-2-oxoindoline-6-carboxamide]"
14,1 to 10,"Cn1cc(CN2C(=O)C(C)(C)c3ccc(C(=O)NCc4c(F)cc(F)cc4F)cc32)cn1 [Example 68, 3,3-dimethyl-1-((1-methyl-1H-pyrazol-4-yl)methyl)-2-oxo-N-(2,4,6-trifluorobenzyl)indoline-6-carboxamide]"
15,> 10,"CC1(C)C(=O)N(Cc2cc(F)cc(F)c2)c2cc(C(=O)NCc3cccc(C#N)c3)ccc21 [Example 44, N-(3-cyanobenzyl)-1-(3,5-difluorobenzyl)-3,3-dimethyl-2-oxoindoline-6-carboxamide]"
